Laboratory results: US7666354B2, “Composition for sterilization comprising ω-alkoxyperoxycarboxylic acid” (FUJIFILM Corporation, priority 2004, dated 2010)
Like-named read-outs stand apart in the source and are kept apart here.

Columns and labels:
[1] = Stability Evaluation 1: peracid concentration after mixing carboxylic acid and 50% aqueous hydrogen peroxide (potassium iodide/sodium thiosulfate titration); type: physicochemical; settings: for peracid concentration in composition, 3 days after mixing: day 3; for peracid concentration in composition, 22 days after mixing: day 22; for peracid concentration in composition, 6 days after mixing: day 6
Description: A carboxylic acid (30 mmol) and 50% aqueous hydrogen peroxide (45 mmol) were mixed, and concentration of generated peracid was quantified by potassium iodide/sodium thiosulfate titration as described in Example 1 at a constant time interval. As the carboxylic acid, 3-methoxypropionic acid and 3-ethoxypropionic acid were used. As a control for comparison, methoxyacetic acid was used.
Numbers in Table 3 indicates peracid concentration (mM) in compositions.

[2] = tested on: Spores of Bacillus subtilis IFO3134; assay: Evaluation of antimicrobial activity against spores (liquid culture and agar culture after a given reaction time); type: cell-based; settings: for colony formation, 15 sec / colony formation, 1 min / colony formation, 5 min: Agar culture; for colony formation, 15 sec / bacterial proliferation, 15 sec: reaction time 15 sec; for colony formation, 1 min / bacterial proliferation, 1 min: reaction time 1 min; for colony formation, 5 min / bacterial proliferation, 5 min: reaction time 5 min; for bacterial proliferation, 15 sec / bacterial proliferation, 1 min / bacterial proliferation, 5 min: Liquid culture
Method: Antimicrobial activity of the composition of the present invention against spores was evaluated.
Spores of Bacillus subtilis IFO3134 was prepared based on the preparation method of a spores stock solution described in Notification from Ministry of Health, Labour and Welfare, “Ei-nyu(Milk Hygiene)” No. 10, Jan. 29, 1996 (Heisei 8). […] The bacteria were suspended in sterilized water (3 ml), and the suspension was heated at 65° C. for 30 minutes under shaking at 160 rpm to kill trophozoites. Resulting suspension was centrifuged at 3000 rpm, and the supernatant was discarded. Sterilized water (3 ml) was added to the residue to obtain a stock solution of spores. A solution of 1.1×10^9 cfu/mL was prepared using the stock solution and subjected to the following evaluations of antimicrobial activity.
Evaluation of antimicrobial activity was conducted according to the method of Sakagami et al. (J. Antibact. Antifung. Agents., Vol. 26, 605-601, 1998). Specifically, an aqueous solution (225 μl) of each sample which was filtered with 0.2 μm paper filter was added with spores suspension (25 μl) prepared by the above described method. The mixture (concentration of bacteria: 1.1×10^8 cfu/mL) was reacted for a given period of time. From the reaction solution, 2 μL sample was corrected and added to 2 ml of SCDLP culture medium (Nissui Pharmaceutical Co., Ltd.). The medium was cultured at 37° C. under shaking at 160 rpm for 48 hours, and the presence of bacterial growth was examined. At the same time, the reaction solution (25 μL) was added to a mixture solution (225 μL) of 0.1N sodium thiosulfate and 1% catalase to inactivate a peroxycarboxylic acid and hydrogen peroxide. Resulting solution (100 μL) was inoculated to SCDLP culture agar medium (Nissui Pharmaceutical Co., Ltd., 25 mL/petri dish). The medium was cultured at 37° C. for 48 hours, and examined visually for colony formation.
Each solution prepared in Example 1, 2, 3-c, 3-f, and 3-j was diluted with distilled water for injection (Hikari pharmaceutical company) so as to obtain a solution of peroxycarboxylic acid at a concentration of 40 mM, which was used as composition 1, 2, 3, 24, and 28. The compositions were evaluated for their antimicrobial activity using the above described method. Aqueous hydrogen peroxide which contains hydrogen peroxide at a higher concentration than the hydrogen peroxide concentration of the above diluted solutions was separately evaluated in a similar manner, and results are also shown in Table 1.

[3] = Judgment whether the composition meets the criteria of the fifth class of hazardous material in the Fire Defense Law (thermal analysis, pressure container test); settings: aqueous composition: Compound 3 7% w/w, hydrogen peroxide 13% w/w, 3-propoxypropionic acid 32% w/w, water 48% w/w
Method: A aqueous composition of the peroxycarboxylic acid which was obtained in the above described Synthesis of compound 3 (1.6 M, 100 ml) was mixed with water (50 ml) for dilution, and the mixture was left at 25° C. for 14 days. The solution was further kept at 4° C. for 10 days. Quantification was conducted by potassium iodide/sodium thiosulfate titration as described in Example 1.
The above aqueous composition was subjected to judgment whether or not the composition meets the criteria of the fifth class of hazardous material in the Fire Defense Law.

[4] = Stability Evaluation 2: pH dependency of peroxycarboxylic acid concentration; type: physicochemical; settings: 80 mM solution, FIG. 1
Method: A aqueous composition of the peroxycarboxylic acid which was obtained in the above described Synthesis of compound 3 (1.6 M, 100 ml) was diluted by addition of water (50 ml), and the mixture was left at 25° C. for 7 days. Quantification was conducted by potassium iodide/sodium thiosulfate titration as described in Example 1.
The aqueous composition was diluted with water to adjust the peroxycarboxylic acid concentration at 80 mM. Three solutions of pH 1.7, 3.0, and 5.0 were prepared, and peroxycarboxylic acid concentration was quantified by potassium iodide/sodium thiosulfate titration as described in Example 1 at a constant time intervals. The pH was adjusted by addition of dipotassium hydrogen phosphate. Assuming that peroxycarboxylic acid concentration of 80 mM is 100%, changes in peroxycarboxylic acid concentration are shown in FIG. 1.

[5] = tested on: spores; settings: recently reported; cited from earlier work
[6] = tested on: Spores of Bacillus subtilis IFO3134; assay: Evaluation of antimicrobial activity against spores (liquid culture and agar culture after a given reaction time); type: cell-based; settings: Table 2, Acecide, 40 mM peracetic acid
[7] = cited from earlier work
[8] = carboxylic acid 30 mmol + 50% aqueous hydrogen peroxide 45 mmol
[9] = Table 2, Acecide, 40 mM peracetic acid

COCCC(=O)OO [Compound 1, 3-methoxyperoxypropionic acid]
peracid concentration in composition, 3 days after mixing [1, 8]: 160 mM | peracid concentration in composition, 5 days after mixing ([1]; carboxylic acid 30 mmol + 50% aqueous hydrogen peroxide 45 mmol, day 5): 250 mM | peracid concentration in composition, 22 days after mixing [1, 8]: 650 mM | stability: change of peracid concentration with passage of time (in words) ([1]; summary of Table 3): any decrease in peracid amount was not observed | colony formation, 15 sec ([2]; peroxycarboxylic acid 40 mM): + | colony formation, 1 min ([2]; peroxycarboxylic acid 40 mM): + | colony formation, 5 min ([2]; peroxycarboxylic acid 40 mM): − | bacterial proliferation, 15 sec ([2]; peroxycarboxylic acid 40 mM): + | bacterial proliferation, 1 min ([2]; peroxycarboxylic acid 40 mM): + | bacterial proliferation, 5 min ([2]; peroxycarboxylic acid 40 mM): −

CCOCCC(=O)OO [Compound 2, 3-ethoxyperoxypropionic acid]
stability: change of peracid concentration with passage of time (in words) [1]: any decrease in peracid amount was not observed | peracid concentration in composition, 3 days after mixing [1, 8]: 160 mM | peracid concentration in composition, 6 days after mixing [1, 8]: 310 mM | peracid concentration in composition, 22 days after mixing [1, 8]: 700 mM | colony formation, 15 sec ([2]; peroxycarboxylic acid 40 mM): + | colony formation, 1 min ([2]; peroxycarboxylic acid 40 mM): + | colony formation, 5 min ([2]; peroxycarboxylic acid 40 mM): − | bacterial proliferation, 15 sec ([2]; peroxycarboxylic acid 40 mM): + | bacterial proliferation, 1 min ([2]; peroxycarboxylic acid 40 mM): + | bacterial proliferation, 5 min ([2]; peroxycarboxylic acid 40 mM): −

CCCOCCC(=O)OO [Compound 3, peroxy-3-propoxypropionic acid]
classification as fifth class of hazardous material in the Fire Defense Law [3]: did not classified in the fifth class of hazardous material | pressure container test result [3]: rank 3 | thermal analysis result [3]: no hazardous | change in peroxycarboxylic acid concentration (storage stability), pH lower than 2 ([4]; pH 1.7): a decrease in peroxycarboxylic acid concentration was faster | storage stability, pH 3.0 ([4]; pH 3.0): significantly high storage stability | change in peroxycarboxylic acid concentration (storage stability), pH 5 or higher ([4]; pH 5.0): a decrease in peroxycarboxylic acid concentration was faster | colony formation, 15 sec ([2]; peroxycarboxylic acid 40 mM): + | colony formation, 1 min ([2]; peroxycarboxylic acid 40 mM): + | bacterial proliferation, 15 sec ([2]; peroxycarboxylic acid 40 mM): + | bacterial proliferation, 1 min ([2]; peroxycarboxylic acid 40 mM): + | bacterial proliferation, 5 min ([2]; peroxycarboxylic acid 40 mM): −

CCOCCCC(=O)OO [Compound 24]
colony formation, 15 sec ([2]; peroxycarboxylic acid 40 mM): + | colony formation, 1 min ([2]; peroxycarboxylic acid 40 mM): + | colony formation, 5 min ([2]; peroxycarboxylic acid 40 mM): − | bacterial proliferation, 15 sec ([2]; peroxycarboxylic acid 40 mM): + | bacterial proliferation, 1 min ([2]; peroxycarboxylic acid 40 mM): + | bacterial proliferation, 5 min ([2]; peroxycarboxylic acid 40 mM): −

O=C(CCOCCCl)OO [Compound 28]
colony formation, 15 sec ([2]; peroxycarboxylic acid 40 mM): + | colony formation, 1 min ([2]; peroxycarboxylic acid 40 mM): + | colony formation, 5 min ([2]; peroxycarboxylic acid 40 mM): − | bacterial proliferation, 15 sec ([2]; peroxycarboxylic acid 40 mM): + | bacterial proliferation, 1 min ([2]; peroxycarboxylic acid 40 mM): + | bacterial proliferation, 5 min ([2]; peroxycarboxylic acid 40 mM): −

OO [Hydrogen peroxide, reference compound]
colony formation, 15 sec ([2]; hydrogen peroxide 2000 mM): + | colony formation, 1 min ([2]; hydrogen peroxide 2000 mM): + | colony formation, 5 min ([2]; hydrogen peroxide 2000 mM): + | bacterial proliferation, 15 sec ([2]; hydrogen peroxide 2000 mM): + | bacterial proliferation, 1 min ([2]; hydrogen peroxide 2000 mM): + | bacterial proliferation, 5 min ([2]; hydrogen peroxide 2000 mM): +

O=CCCCC=O [glutaraldehyde]
sterilizing effect to spores [5]: weak sterilizing effect to spores

CC(=O)OO [peracetic acid]
colony formation, 1 min ([6]; Agar culture, reaction time 1 min): + | colony formation, 5 min ([6]; Agar culture, reaction time 5 min): − | bacterial proliferation, 1 min ([6]; Liquid culture, reaction time 1 min): + | bacterial proliferation, 5 min ([6]; Liquid culture, reaction time 5 min): − | colony formation, 15 sec [2, 9]: + | bacterial proliferation, 15 sec [2, 9]: +

COCC(=O)OO [peroxy-methoxyacetic acid, reference compound]
antibacterial effect compared with peracetic acid ([7]; J. Molecular Catalysis B: Enzymatic, 19-20, pp. 499-505 (2002)): weaker antibacterial effect than that of peracetic acid | stability: change of peracid concentration with passage of time (in words) [1]: unstable | peracid concentration in composition, 3 days after mixing [1, 8]: 530 mM | peracid concentration in composition, 6 days after mixing [1, 8]: 540 mM | peracid concentration in composition, 10 days after mixing ([1]; carboxylic acid 30 mmol + 50% aqueous hydrogen peroxide 45 mmol, day 10): 380 mM | peracid concentration in composition, 14 days after mixing ([1]; carboxylic acid 30 mmol + 50% aqueous hydrogen peroxide 45 mmol, day 14): 340 mM | peracid concentration in composition, 24 days after mixing ([1]; carboxylic acid 30 mmol + 50% aqueous hydrogen peroxide 45 mmol, day 24): 210 mM

CCC(=O)OO [peroxypropionic acid]
sterilizing action ([7]; J. Hyg. Epid. Microbiol. Immun., 9, pp. 220-226 (1965)): effective sterilizing action

O=C(CCOCCO)OO [reference compound]
antimicrobial activity compared with Composition 1, Composition 2 ([2]; evaluated in a similar manner to Example 4): lower than that of Composition 1, Composition 2 or the like
